Reference: US20230312473A1, “PROCESS FOR THE PREPARATION OF BIHETEROARYL COMPOUNDS AND CRYSTAL FORMS THEREOF” (Genentech, Inc., priority 2020, published 2023)

Legend:
Format in all cases: physicochemical
[1] = Solubility of compound I free base in MIBK
Method: In one aspect, the dissolution solvent is MIBK. The solubility of compound I free base in MIBK is about 8.2 wt. % at 90° C., about 5.2 wt. % at 80° C., about 4 wt. % at 70° C., about 3 wt. % at 60° C., about 2 wt. % at 50° C., about 1.4 wt. % at 40° C., about 1 wt. % at 30° C., about 0.9 wt. % at 20° C., about 0.6 wt. % at 10° C., about 0.4 wt. % at 0° C., and about 0.2 wt. % at −10° C. In some aspects, a 6.5 wt. % to 7.5 wt. % solution of compound I free base in MIBK is formed at 90° C. Following filtration at about 90° C., the solution may be cooled to about 75° C. following by addition of seed crystals to form a slurry, and optionally held (aged) at that temperature for a period of time, such as from about 0.5 to about 2 hours. The slurry may then be cooled, such as for instance to about −10° C., and aged at that temperature for a period of time, such as from about 2 to about 10 hours. Solid crystallized compound I may be isolated, and washed with chilled MIBK (e.g., at about 0° C. to about 10° C.) and then with chilled alcohol, such as ethanol (e.g., at about 0° C. to about 10° C.). Crystalline compound I may be dried at a temperature of from about 40° C. to about 70° C. (e.g., 60° C.) under vacuum (e.g., about 20 mbar or less) until a constant weight is achieved.

[2] = Mechanical stress evaluation: thermogravimetric analysis (TGA)
Method: Compound 1, produced generally according to the method of Example 5, was evaluated for changes induced mechanical stress conditions, where crystallinity was evaluated by XRPD and where thermoanalytic characteristics were measured by differential scanning calorimetry (“DSC”), thermogravimetric analysis (“TGA”) and dynamic vapor sorption (“DVS”).
About 500 mg of compound 1 was dry grinded for about 5 minutes at ambient conditions with a mortar and pestle in order to simulate shear stresses encountered during a dry granulation. […] Furthermore, thermoanalytic data as measured by DSC, TGA, and DVS was only marginally different from compound 1 starting material (see Table 12 below).
The effect of pressure on compound 1 was performed to investigate whether phase transformation could occur during tableting. The conditions were 1.8 T/5 mm compact, 900 MPa, about 30 mg of compound 1, and a dwell time of about 6 seconds). The tablets were analyzed without further treatment and after gentle crushing of the tablets with a pestle. […] FIG. 2 pattern (b) is the XRPD pattern for crushed tablets. FIG. 2 pattern (c) is the XRPD pattern for tablets that were not crushed.
To simulate wet milling, wet manual grinding experiments were done. About 500 mg of compound 1 and about 0.5 mL water were kneaded for about 5 minutes with a mortar and pestle. About 100 mg of the wet material was analyzed by XRPD. The remainder of the material was dried overnight in an oven at 50° C. and ambient pressure. The dried material was analyzed by […], DSC, TGA, and DVS.

[3] = Solubility of compound (1) in solvents at 0° C. and the respective maximum process temperature; details: for Solubility at max temp / Solubility at 0° C.: Form A
Text: Prior art processes for preparing compound (1) used isopropyl acetate for final crystallization, having a yield of 84% at a relatively low concentration of 3.0%-w/w. […] It was known from previous qualitative experimental data as well as solubility prediction (numerical simulation) that the possible list is reduced since the solubility of GDC-0134 in alcohols is too low. From a process design perspective, a simple cooling crystallization is preferred over other designs like antisolvent or evaporative crystallization especially because of easier process control. […] Mainly esters but also acetonitrile, methyl isobutyl ketone (MIBK), and 2-MeTHF were on the shortlist for precise solubility determination. The solubility of compound (1) in these solvents is Table 5 for 0° C. and the respective maximum process temperatures. […] While the solubility in acetonitrile is very low even for high temperatures, mixtures of 2-MeTHF and acetonitrile show a synergistic effect at least for a 1:1 mixture. The solubility at 70° C. is the highest among the investigated systems, and the theoretical yield is close to 90%. Due to concerns with regard to the efficient removal of acetonitrile to acceptable levels after drying, 2-MeTHF/acetonitrile-mixtures were not further investigated, though. MIBK offered the highest theoretical yield plus a significant increase in concentration compared to iPrOAc and it was selected for a more detailed investigation

Nc1ncc(-c2cc(N3C[C@@H]4C[C@H]3CO4)nc(N3CCC(F)(F)C3)n2)cc1OC(F)F [Compound 1, 5-(6-((1S,4S)-2-oxa-5-azabicyclo[2.2.1]heptan-5-yl)-2-(3,3-difluoropyrrolidin-1-yl)pyrimidin-4-yl)-3-(difluoromethoxy)pyridin-2-amine]
solubility in MIBK ([1]; 0° C.): about 0.4 wt. %
solubility in MIBK ([1]; 10° C.): about 0.6 wt. %
solubility in MIBK ([1]; 20° C.): about 0.9 wt. %
solubility in MIBK ([1]; 30° C.): about 1 wt. %
solubility in MIBK ([1]; 40° C.): about 1.4 wt. %
solubility in MIBK ([1]; 50° C.): about 2 wt. %
solubility in MIBK ([1]; 60° C.): about 3 wt. %
solubility in MIBK ([1]; 70° C.): about 4 wt. %
solubility in MIBK ([1]; 80° C.): about 5.2 wt. %
solubility in MIBK ([1]; 90° C.): about 8.2 wt. %
solubility in MIBK ([1]; −10° C.): about 0.2 wt. %
TGA Total wt. loss ([2]; after Dry Granulation (dry grinding about 5 minutes, mortar and pestle)): 0.2% m/m
TGA Total wt. loss ([2]; after Tableting (900 MPa)): 0.3% m/m
TGA Total wt. loss ([2]; after Tableting (crushing)): 0.3% m/m
TGA Total wt. loss ([2]; after Wet Granulation (wet manual grinding with water, dried at 50° C.)): 0.2% m/m
TGA Total wt. loss ([2]; untreated compound 1 starting material): 0.1% m/m
solubility in alcohols ([3]; previous qualitative experimental data and solubility prediction): too low
Solubility at max temp ([3]; solvent: 2-MeTHF:MeCN (1:1), 70 ° C.): 7.3 w/w %
Solubility at 0° C. ([3]; solvent: 2-MeTHF:MeCN (1:1)): 0.8 w/w %
Solubility at max temp ([3]; solvent: 2-MeTHF:MeCN (3:1), 70 ° C.): 2.2 w/w %
Solubility at 0° C. ([3]; solvent: 2-MeTHF:MeCN (3:1)): 1.7 w/w %
Solubility at max temp ([3]; solvent: 2-MeTHF, 70 ° C.): 5.2 w/w %
Solubility at 0° C. ([3]; solvent: 2-MeTHF): 1.6 w/w %
Solubility at max temp ([3]; solvent: Acetonitrile, 70 ° C.): 1.4 w/w %
Solubility at 0° C. ([3]; solvent: Acetonitrile): 0.5 w/w %
Solubility at max temp ([3]; solvent: Ethylacetate, 70 ° C.): 4.8 w/w %
Solubility at 0° C. ([3]; solvent: Ethylacetate): 0.9 w/w %
Solubility at max temp ([3]; solvent: MIBK, 80 ° C.): 5.2 w/w %
Solubility at 0° C. ([3]; solvent: MIBK): 0.4 w/w %
Solubility at max temp ([3]; solvent: Methylacetate, 50 ° C.): 4.9 w/w %
Solubility at 0° C. ([3]; solvent: Methylacetate): 1.3 w/w %
Solubility at max temp ([3]; solvent: i-propyl acetate, 80 ° C.): 4.2 w/w %
Solubility at 0° C. ([3]; solvent: i-propyl acetate): 0.4 w/w %
Solubility at max temp ([3]; solvent: n-propyl acetate, 80 ° C.): 4.3 w/w %
Solubility at 0° C. ([3]; solvent: n-propyl acetate): 0.8 w/w %
